Data from patent publication US20210047324A1 (Aptinyx Inc., priority 2018, published 2021).
Where “and” joins values, the source holds several entries; their conditions need not be identical. Equal entries are not always repeated.

Legend:
NMDAR2A = molecular target: T1, NMDAR2A (Homo sapiens, UniProt Q12879); assay: NMDAR agonist assay, [3H]MK-801 binding, NMDAR2A expressing HEK cell membranes; assay type: biochemical; design: key to NMDAR2A B: log EC50: 0=−; ≥1×10^−9 M (e.g., −8)=+; <1×10^−9 M (e.g., −10)=++; conditions: 50 μM glutamate; for EC50: read-out: NMDAR2A B: log EC50 (converted); for Emax: 0.25 h, read-out: NMDAR2A A: % maximal [3H]MK-801 binding relative to 1 mM glycine; for NMDAR2A A: % maximal [3H]MK-801 binding relative to 1 mM glycine / Emax: relative to 1 mM glycine
T1 construct: expressed in transfected cells; host or cells: HEK cells (membrane extract)
Experimental: (§1) Assays were conducted as described by Moskal et al., “GLYX-13: a monoclonal antibody-derived peptide that acts as an N-methyl-D-aspartate receptor modulator,” Neuropharmacology, 49, 1077-87, 2005. These studies were designed to determine if the test compounds act to facilitate NMDAR activation in NMDAR2A, NMDAR2B, NMDAR2C or NMDAR2D expressing HEK cell membranes as measured by increases in [^3H]MK-801 binding.
(§2) In the assay, 300 μg of NMDAR expressing HEK cell membrane extract protein was preincubated for 15 minutes at […] in the presence of saturating concentrations of glutamate (50 μM) and varying concentrations of test compound (1×10^−15M-1×10^−7M), or 1 mM glycine. Following the addition of 0.3 μCi of [3H]MK-801 (22.5 Ci/mmol), reactions were again incubated for 15 minutes at 25° C. (nonequilibrium conditions). Bound and free [3H]MK-801 were separated via rapid filtration using a Brandel apparatus.
(§3) In analyzing the data, the DPM (disintegrations per minute) of [3H]MK-801 remaining on the filter were measured for each concentration of test compound or for 1 mM glycine. The DPM values for each concentration of a ligand (N=2) were averaged. The baseline value was determined from the best fit curve of the DPM values modeled using the GraphPad program and the log(agonist) vs. response (three parameters) algorithm was then subtracted from all points in the dataset. The % maximal [^3H]MK-801 binding was then calculated relative to that of 1 mM glycine: all baseline subtracted DPM values were divided by the average value for 1 mM glycine. The EC50 and % maximal activity were then obtained from the best fit curve of the % maximal [3H]MK-801 binding data modelled using the GraphPad program and the log(agonist) vs. response (three parameters) algorithm.
(§4) The tables below summarize the results for the wild type […] NMDAR2A, NMDAR2B, NMDAR2C, and NMDAR2D, and whether the compound is not an agonist (−), is an agonist (+), or is a strong agonist (++), where column A is based on the % maximal [3H]MK-801 binding relative to 1 mM glycine (−=0; <100%=+; and >100%=++); and column B is based on log EC50 values (0=−; ≥1×10^−9 M (e.g., −8)=+; and <1×10^−9 M (e.g., −10)=++).

NMDAR2B = molecular target: T2, NMDAR2B (Homo sapiens, UniProt Q13224); assay: NMDAR agonist assay, [3H]MK-801 binding, NMDAR2B expressing HEK cell membranes; assay type: biochemical; design: key to NMDAR2B B: log EC50: 0=−; ≥1×10^−9 M (e.g., −8)=+; <1×10^−9 M (e.g., −10)=++; conditions: 50 μM glutamate; for EC50: read-out: NMDAR2B B: log EC50 (converted); for NMDAR2B A: % maximal [3H]MK-801 binding relative to 1 mM glycine / Emax: relative to 1 mM glycine; for Emax: read-out: NMDAR2B A: % maximal [3H]MK-801 binding relative to 1 mM glycine
T2 construct: expressed in transfected cells; host or cells: HEK cells (membrane extract)
Experimental: as §1, §2, §3, §4

[1] = IV pharmacokinetics in Sprague Dawley rats; assay type: in vivo; conditions: Sprague-Dawley, rat, in vivo, iv, 2 mg/kg, normal saline; for Cmax: read-out: Cmax; for Vd: read-out: Vss
Experimental: Sprague Dawley rats were dosed intravenously using a normal saline formulation containing 2 mg/kg of the compounds identified in the below table. The table below summarizes the results of the IV pharmacokinetics.

[2] = Oral pharmacokinetics in Sprague Dawley rats (plasma, brain, CSF); assay type: in vivo; conditions: rat, 10 mg/kg; for Tmax / AUC(0-t) / bioavailability / Cmax: Sprague-Dawley, po, plasma; for Tmax / AUC(0-t) / Cmax / CSF Cmax / Brain Cmax: per os; for Tmax: read-out: Tmax; for bioavailability: per os 10 mg/kg; for Cmax: read-out: Cmax
Experimental: In another experiment, Sprague Dawley rats were dosed per os (oral gavage) using a normal saline formulation containing 10 mg/kg of the compounds identified in the table below. Plasma, brain, and CSF samples were analyzed at various time points over a 24 hour period. The table below summarizes the results of the oral pharmacokinetics, where the first three values (Tmax, Cmax and AUClast) are plasma values.

Sprague Dawley rats = assay: Porsolt forced swim test; assay type: in vivo; conditions: 1 h post-dose, 0.1 mg/kg
Experimental: A non-clinical in vivo pharmacology study (Porsolt assay) was performed to measure antidepressant-like effects. The study allowed for the evaluation of the effects of each compound on the Porsolt forced swim test as assessed by the rats' response (reduced floating time) during a 5-minute swimming test.
Male 2-3 month old Sprague Dawley rats were used (Harlan, Indianapolis, Ind.). Rats were housed in Lucite cages with aspen wood chip bedding, maintained on a 12:12 light:dark cycle (lights on at 5 AM), and given ad libitum access to Purina lab chow (USA) and tap water throughout the study.
The Porsolt forced swim test adapted for use in rats was performed as described by Burgdorf et al., (The long-lasting antidepressant effects of rapastinel (GLYX-13) are associated with a metaplasticity process in the medial prefrontal cortex and hippocampus. Neuroscience 308:202-211, 2015). Animals were placed in a 46 cm tall×20 cm in diameter clear glass tube filled to 30 cm with tap water (23±1° C.) for 15 min on the first day (habituation) and 5 min on the subsequent test day. Animals were tested 1 h or 24 h post-dosing with the test compounds or vehicle control (0.5% sodium carboxymethyl cellulose in 0.9% sterile saline). A subset of compounds tested at 1 h post-dosing was tested again 1 wk post-dosing. Animals received a 15 min habituation session 1 day before the first 5 min test. Water was changed after every other animal. Animals were videotaped, and floating time as defined as the minimal amount of effort required to keep the animals head above water was scored offline by a blinded experimenter with high inter-rater reliability (Pearson's r >0.9).

[3] = Microsomal stability (Human); assay type: in vitro ADME; conditions: after 60 minutes
Experimental: (§5) Microsomal stability of disclosed compounds was investigated. The following table indicates the percent of compound remaining after 60 minutes.

Plasma stability (Human) = assay type: in vitro ADME; conditions: after 60 minutes
Experimental: (§6) Plasma stability of disclosed compounds was investigated. The following table indicates the percent of compound remaining after 60 minutes.

Plasma stability (Rat) = assay type: in vitro ADME; conditions: after 60 minutes
Experimental: as §6

[4] = Microsomal stability (Rat); assay type: in vitro ADME; conditions: after 60 minutes
Experimental: as §5

T2 sequence (Q13224 27-1484, species assumed, other chains not shown): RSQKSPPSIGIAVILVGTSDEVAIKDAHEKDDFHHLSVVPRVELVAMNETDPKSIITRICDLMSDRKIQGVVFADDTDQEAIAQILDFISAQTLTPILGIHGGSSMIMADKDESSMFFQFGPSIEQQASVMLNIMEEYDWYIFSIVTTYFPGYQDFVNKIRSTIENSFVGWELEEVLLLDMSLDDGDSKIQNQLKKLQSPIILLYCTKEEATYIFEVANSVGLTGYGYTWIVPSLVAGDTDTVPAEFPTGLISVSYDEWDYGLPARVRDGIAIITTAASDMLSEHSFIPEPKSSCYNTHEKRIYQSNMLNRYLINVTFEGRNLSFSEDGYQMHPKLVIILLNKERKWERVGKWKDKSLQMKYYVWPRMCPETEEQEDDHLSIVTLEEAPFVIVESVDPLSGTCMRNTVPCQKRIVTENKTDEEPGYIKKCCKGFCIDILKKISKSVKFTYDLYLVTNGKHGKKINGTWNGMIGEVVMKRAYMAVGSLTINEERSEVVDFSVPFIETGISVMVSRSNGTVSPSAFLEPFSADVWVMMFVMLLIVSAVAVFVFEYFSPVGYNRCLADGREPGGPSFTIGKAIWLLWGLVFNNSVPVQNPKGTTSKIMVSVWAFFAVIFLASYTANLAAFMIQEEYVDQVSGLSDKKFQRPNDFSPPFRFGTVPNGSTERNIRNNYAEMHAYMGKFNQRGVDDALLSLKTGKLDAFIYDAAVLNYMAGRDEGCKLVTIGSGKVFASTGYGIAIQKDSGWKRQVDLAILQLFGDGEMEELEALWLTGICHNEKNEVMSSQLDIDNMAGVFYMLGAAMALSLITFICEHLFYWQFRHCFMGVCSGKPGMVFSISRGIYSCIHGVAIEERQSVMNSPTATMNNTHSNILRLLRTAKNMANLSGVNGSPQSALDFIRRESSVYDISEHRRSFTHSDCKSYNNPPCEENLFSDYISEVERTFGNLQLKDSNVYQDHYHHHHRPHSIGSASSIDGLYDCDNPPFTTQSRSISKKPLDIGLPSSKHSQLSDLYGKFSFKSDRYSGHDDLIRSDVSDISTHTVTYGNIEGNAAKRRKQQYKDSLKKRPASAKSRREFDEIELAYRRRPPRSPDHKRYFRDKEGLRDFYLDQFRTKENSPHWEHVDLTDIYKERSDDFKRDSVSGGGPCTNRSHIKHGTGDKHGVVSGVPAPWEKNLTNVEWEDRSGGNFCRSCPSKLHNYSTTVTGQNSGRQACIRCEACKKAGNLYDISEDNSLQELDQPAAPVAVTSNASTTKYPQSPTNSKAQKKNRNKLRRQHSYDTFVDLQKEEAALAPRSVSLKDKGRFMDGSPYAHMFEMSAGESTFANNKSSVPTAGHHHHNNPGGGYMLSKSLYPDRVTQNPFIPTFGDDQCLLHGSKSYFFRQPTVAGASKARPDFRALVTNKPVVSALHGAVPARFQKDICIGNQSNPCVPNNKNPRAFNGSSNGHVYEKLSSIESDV
T1 sequence (Q12879 23-1464, species assumed, other chains not shown): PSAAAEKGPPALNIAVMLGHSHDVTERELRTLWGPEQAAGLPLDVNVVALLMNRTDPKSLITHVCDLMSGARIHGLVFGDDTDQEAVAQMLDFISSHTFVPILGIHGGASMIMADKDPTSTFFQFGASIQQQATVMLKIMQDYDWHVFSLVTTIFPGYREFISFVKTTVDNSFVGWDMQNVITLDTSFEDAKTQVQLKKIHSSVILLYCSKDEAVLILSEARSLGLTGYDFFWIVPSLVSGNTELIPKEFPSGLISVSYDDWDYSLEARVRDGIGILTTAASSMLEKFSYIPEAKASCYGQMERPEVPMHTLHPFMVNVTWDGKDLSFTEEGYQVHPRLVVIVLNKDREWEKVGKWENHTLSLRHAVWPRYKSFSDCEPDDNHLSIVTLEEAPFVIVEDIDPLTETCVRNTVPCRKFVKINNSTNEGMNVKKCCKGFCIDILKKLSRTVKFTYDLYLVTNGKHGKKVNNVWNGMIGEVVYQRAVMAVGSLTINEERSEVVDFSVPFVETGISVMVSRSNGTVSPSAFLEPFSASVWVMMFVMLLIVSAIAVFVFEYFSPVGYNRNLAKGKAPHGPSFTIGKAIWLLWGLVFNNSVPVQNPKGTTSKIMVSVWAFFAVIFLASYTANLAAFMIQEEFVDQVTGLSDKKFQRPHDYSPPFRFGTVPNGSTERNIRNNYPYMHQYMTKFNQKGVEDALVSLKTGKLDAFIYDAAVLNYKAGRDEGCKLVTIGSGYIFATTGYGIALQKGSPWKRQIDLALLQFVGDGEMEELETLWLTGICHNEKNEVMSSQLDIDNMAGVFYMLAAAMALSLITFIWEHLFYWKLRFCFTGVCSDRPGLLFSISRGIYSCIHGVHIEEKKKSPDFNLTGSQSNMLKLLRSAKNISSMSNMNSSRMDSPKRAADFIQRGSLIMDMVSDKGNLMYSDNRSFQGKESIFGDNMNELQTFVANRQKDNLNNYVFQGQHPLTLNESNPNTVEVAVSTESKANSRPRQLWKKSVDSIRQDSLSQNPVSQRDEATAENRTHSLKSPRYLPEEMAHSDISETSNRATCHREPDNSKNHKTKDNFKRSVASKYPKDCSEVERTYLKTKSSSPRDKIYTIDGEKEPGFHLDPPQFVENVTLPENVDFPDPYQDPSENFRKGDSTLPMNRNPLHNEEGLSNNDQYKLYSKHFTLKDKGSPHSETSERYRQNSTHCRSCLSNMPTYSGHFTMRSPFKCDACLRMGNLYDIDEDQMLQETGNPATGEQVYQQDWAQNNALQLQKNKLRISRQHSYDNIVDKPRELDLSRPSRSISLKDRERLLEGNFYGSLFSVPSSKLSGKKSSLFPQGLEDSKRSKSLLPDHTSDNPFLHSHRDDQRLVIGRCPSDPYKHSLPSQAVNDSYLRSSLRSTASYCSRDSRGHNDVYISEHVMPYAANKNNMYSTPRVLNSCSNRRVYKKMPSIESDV

Compound: CC(C)C(=O)N1CCC2(CCCN2C(=O)C(C)C)C1=O (single isomer, unassigned) [GU-2, 1,1′-(6-oxo-1,7-diazaspiro[4.4]nonane-1,7-diyl)bis(2-methylpropan-1-one)]
- EC50 (NMDAR2A): < 1 nM
- NMDAR2A A: % maximal [3H]MK-801 binding relative to 1 mM glycine (NMDAR2A): + (<100%=+)
- EC50 (NMDAR2B): < 1 nM
- NMDAR2B A: % maximal [3H]MK-801 binding relative to 1 mM glycine (NMDAR2B): + (<100%=+)

Compound: CN1CC=CCC2(CCCN2Cc2ccccc2)C1=O (single isomer, unassigned) [GT-2, 1-benzyl-7-methyl-1,7-diazaspiro[4.6]undec-9-en-6-one]
- EC50 (NMDAR2A): < 1 nM
- EC50 (NMDAR2B): ≥ 1 nM

Compound: CN1CC=CCC2(CCCN2C)C1=O (stereo not drawn) [listing 1 of 2 here]
- NMDAR2A B: log EC50 (NMDAR2A): −
- NMDAR2A A: % maximal [3H]MK-801 binding relative to 1 mM glycine (NMDAR2A): − (−=0)
- NMDAR2B B: log EC50 (NMDAR2B): −
- Emax (NMDAR2B): 0%

Compound: CN1CC=CCC2(CCCN2C)C1=O (stereo not drawn) [listing 2 of 2 here]
- EC50 (NMDAR2A): < 1 nM
- NMDAR2A A: % maximal [3H]MK-801 binding relative to 1 mM glycine (NMDAR2A): + (<100%=+)
- NMDAR2B B: log EC50 (NMDAR2B): −
- NMDAR2B A: % maximal [3H]MK-801 binding relative to 1 mM glycine (NMDAR2B): − (−=0)

Compound: O=C1N(Cc2ccc(F)cc2)CC=CCC12CCCN2 (single isomer, unassigned) [GK-1, 7-(4-fluorobenzyl)-1,7-diazaspiro[4.6]undec-9-en-6-one]
- EC50 (NMDAR2A): < 1 nM
- NMDAR2A A: % maximal [3H]MK-801 binding relative to 1 mM glycine (NMDAR2A): + (<100%=+)
- EC50 (NMDAR2B): < 1 nM
- Emax (NMDAR2B): > 100%
- AUC(0-t) [1]: 335 ng·h/mL
- clearance [1]: 98.4 mL/min/kg
- half-life [1]: 32.4 min
- Cmax [1]: 854 ng/mL
- Vd [1]: 3.01 L/kg
- Tmax [2]: 30 min
- AUC(0-t) [2]: 718 ng·h/mL
- bioavailability [2]: 43%
- Cmax [2]: 642 ng/mL
- CSF Cmax [2]: 322.45 ng/mL
- Brain Cmax [2]: 3368.95 ng/mL
- % reduction in float time (Sprague Dawley rats): 24%
- Significance vs. vehicle (Sprague Dawley rats): No

Compound: CC(C)(C)OC(=O)N1CCCCCC12CNC2=O (single isomer, unassigned) [EI-2, tert-butyl 1-oxo-2,5-diazaspiro[3.6]decane-5-carboxylate]
- EC50 (NMDAR2A): < 1 nM

Compound: CN1CCCC12CC=CCNC2=O (single isomer, unassigned) [GC-1, 1-methyl-1,7-diazaspiro[4.6]undec-9-en-6-one]
- EC50 (NMDAR2A): < 1 nM
- Emax (NMDAR2A): < 100%
- EC50 (NMDAR2B): < 1 nM
- Emax (NMDAR2B): > 100%
- AUC(0-t) [1]: 1020 ng·h/mL
- clearance [1]: 32.2 mL/min/kg
- half-life [1]: 40.8 min
- Cmax [1]: 1210 ng/mL
- Vd [1]: 1.78 L/kg
- Tmax [2]: 25.2 min
- AUC(0-t) [2]: 4430 ng·h/mL
- bioavailability [2]: 87%
- Cmax [2]: 2400 ng/mL
- CSF Cmax [2]: 744.03 ng/mL
- Brain Cmax [2]: 2578.7 ng/mL
- Microsomal (Human): percent of compound remaining [3]: 115% and 67%
- Plasma (Human): percent of compound remaining (Plasma stability (Human)): 97%
- Plasma (Rat): percent of compound remaining (Plasma stability (Rat)): 89%

Compound: O=C1NCCCCC12CCCCN2 (single isomer, unassigned) [BA, 1,8-diazaspiro[5.6]dodecan-7-one]
- EC50 (NMDAR2A): < 1 nM
- EC50 (NMDAR2B): < 1 nM

Compound: O=C1NCCCC12CCCNC2 (single isomer, unassigned) [CD, 2,8-diazaspiro[5.5]undecan-1-one]
- EC50 (NMDAR2A): < 1 nM
- Emax (NMDAR2A): < 100%
- EC50 (NMDAR2B): < 1 nM
- Emax (NMDAR2B): < 100%

Compound: O=C1NCCCCC12CCCNC2 (single isomer, unassigned) [CG, 2,8-diazaspiro[5.6]dodecan-7-one]
- EC50 (NMDAR2A): < 1 nM
- EC50 (NMDAR2B): < 1 nM

Compound: CN1CCCC12CC=CCNC2=O (single isomer, unassigned) [GC-2, 1-methyl-1,7-diazaspiro[4.6]undec-9-en-6-one]
- EC50 (NMDAR2A): ≥ 1 nM
- NMDAR2A A: % maximal [3H]MK-801 binding relative to 1 mM glycine (NMDAR2A): + (<100%=+)
- EC50 (NMDAR2B): < 1 nM
- NMDAR2B A: % maximal [3H]MK-801 binding relative to 1 mM glycine (NMDAR2B): + (<100%=+)
- Microsomal (Human): percent of compound remaining [3]: 82% and 100%
- Plasma (Human): percent of compound remaining (Plasma stability (Human)): 98%
- Plasma (Rat): percent of compound remaining (Plasma stability (Rat)): 103%

Compound: O=C1NCC=CCC12CC(F)(F)CN2 (single isomer, unassigned) [GL-1, 3,3-difluoro-1,7-diazaspiro[4.6]undec-9-en-6-one]
- EC50 (NMDAR2A): < 1 nM
- Emax (NMDAR2A): < 100%
- EC50 (NMDAR2B): < 1 nM
- Emax (NMDAR2B): < 100%

Compound: CC(=O)N1CCCC12CC=CCNC2=O (single isomer, unassigned) [GG-1, 1-acetyl-1,7-diazaspiro[4.6]undec-9-en-6-one]
- EC50 (NMDAR2A): < 1 nM
- Emax (NMDAR2A): < 100%
- EC50 (NMDAR2B): < 1 nM
- Emax (NMDAR2B): < 100%

Compound: O=C1NCCCC12CCCNC2 (single isomer, unassigned) [CE, 2,8-diazaspiro[5.5]undecan-1-one]
- EC50 (NMDAR2A): < 1 nM
- EC50 (NMDAR2B): < 1 nM

Compound: O=C1NCCCC12CCCN2 (stereo not drawn) [EU-1, 1,7-diazaspiro[4.5]decan-6-one]
- NMDAR2A B: log EC50 (NMDAR2A): −
- Emax (NMDAR2A): 0%
- EC50 (NMDAR2B): < 1 nM
- Emax (NMDAR2B): < 100%

Compound: CC(C)C(=O)N1CCCC12CC=CCNC2=O (single isomer, unassigned) [GH-2, 1-isobutyryl-1,7-diazaspiro[4.6]undec-9-en-6-one]
- EC50 (NMDAR2A): < 1 nM
- NMDAR2A A: % maximal [3H]MK-801 binding relative to 1 mM glycine (NMDAR2A): + (<100%=+)
- EC50 (NMDAR2B): < 1 nM
- NMDAR2B A: % maximal [3H]MK-801 binding relative to 1 mM glycine (NMDAR2B): ++ (>100%=++)
- AUC(0-t) [1]: 1990 ng·h/mL
- clearance [1]: 16.7 mL/min/kg
- half-life [1]: 25.8 min
- Cmax [1]: 1500 ng/mL
- Vd [1]: 0.75 L/kg
- Tmax [2]: 25.2 min
- AUC(0-t) [2]: 11300 ng·h/mL
- bioavailability [2]: 100%
- Cmax [2]: 5300 ng/mL
- CSF Cmax [2]: 2296.73 ng/mL
- Brain Cmax [2]: 1424.03 ng/mL
- Microsomal (Human): percent of compound remaining [3]: 87%
- Microsomal (Rat): percent of compound remaining [4]: 104%
